In patent US20050282772A1, “New dietary supplement composition for obesity and inflammation” (priority 2004, published 2005):

Tests used:
[1] = in vivo; cited from earlier work
[2] = Superoxide free radical-scavenging activity by NBT (nitro blue tetrazolium) method
Description: Superoxide Free Radical-Scavenging Activity. The superoxide free radical-scavenging activity was determined by the NBT (nitro blue tetrazolium) method. The reaction mixture contained EDTA (6.6 mM), NaCN (3 μg), riboflavin (2 μM), NBT (50 μM), various concentrations of the test drug in ethanol and a phosphate buffer (58 mM, pH 7.8) in a final volume of 3 ml. Optical density was measured at 560 nm. The test tubes were uniformly illuminated with an incandescent lamp for 15 min, after which the optical density was measured again at 560 nm. The percentage inhibition and superoxide radical generation was measured by comparing the absorbance values of the control and those of the test compounds.
(§1) The new phytochemical compositions of this invention are found to show antioxidant activity (Table 1; antioxidant activity is measured by two different mechanisms (a) Nitro blue tetrazolium (NBT) (b) DPPH free radical scavenging methods and are expressed in % of inhibition at 500 μg concentrations; higher the % inhibitory values, higher is the activity).

5-Lipoxygenase = 5-Lipoxygenase inhibitory activity, colorimetric method (ferric xylenol orange); assay type: biochemical
Description: 5-Lipoxygenase Activity: The new phytochemical compositions were screened for their 5-Lipoxygenase inhibitory potential using colorimetric method. The assay mixture contained 50 mM phosphate buffer pH 6.3, 5-Lipoxygenase, various concentrations of test substances in dimethyl sulphoxide and linoleic acid in a total volume of 0.5 mL, after 5 min incubation of above reaction mixture, 0.5 mL ferric xylenol orange reagent was added and OD was measured after two minutes at 585 nm using spectrophotometer. Controls were run along with test in a similar manner except using vehicle instead of test substance solution. Percent inhibition was calculated by comparing absorbance of test solution with that of control. The new phytochemical compositions of this invention are found to show 5-lipoxygenase activity (Table 1; 5-lipoxygenase activity is expressed in % of inhibition at 100 μg concentrations; higher the % inhibitory values, higher is the activity).

[3] = DPPH free radical scavenging activity
Description: DPPH Free Radical Scavenging Activity. DPPH (1,1-diphenyl-2-picryl-hydrazyl) radical scavenging activity was measured based on the reduction of methanolic solution of the colored DPPH. Free radical scavenging ability of the test drug in ethanol added to the methanolic solution of DPPH is […] to the difference in initial and final absorption of DPPH solution at 516 nm. The reaction mixture contained 1×10^−4 mM methanolic solution of DPPH and various concentrations of test drugs. The percentage inhibition was determined by comparing the absorbance values of test and control tubes.
as §1

[4] = similar active dose; animal study; cited from earlier work

Molecule	LD50 [1] [mg/kg]	% inhibition of NBT free radical scavenging activity at 500 μg concentrations [2] [%]	% inhibition of 5-LOX activity at 100 μg concentrations (5-Lipoxygenase) [%]	% inhibition of DPPH free radical scavenging activity at 500 μg concentrations [3] [%]	ulcerogan index [4]
N[C@@H](Cc1c[nH]c2ccc(O)cc12)C(=O)O [Composition 5-HTP, 5-Hydroxytryptophan]	> 2500	–	–	–	–
Cl.N[C@H]1C(O)O[C@H](CO)[C@@H](O)[C@@H]1O (some centres unmarked) [Glucosamine HCl, glucosamine hydrochloride]	–	5.6	0	2.8	–
CCCCC1C(=O)N(c2ccccc2)N(c2ccccc2)C1=O [phenylbutazone]	–	–	–	–	1.7
Calcium, potassium salt of (−)-HCA [HCA (70%)]	–	25.5	0.2	0	–
